Laboratory results as given in patent publication US20190125745A1, “TREATMENT AND DIAGNOSIS OF CANCER” (Rgenix, Inc., priority 2014, published 2019).
pEC50: −log10 of the molar value.

Legend:
[1] = test system: MeWo, HT-144, SK-Mel-2, SK-Mel-334.2 human melanoma cells; assay: Cell invasion assay (trans-well matrigel); assay type: cell-based; settings: 1 μM, 72 hours; for inhibiting cancer progression phenotypes (cell invasion, endothelial recruitment): MeWo cells, versus lower potency LXR agonists
From the text: FIG. 2. Activation of LXRβ Signaling Suppresses Melanoma Cell Invasion and Endothelial Recruitment. (A) Heat-map depicting microarray-based expression levels of LXR and RXR isoforms in the NCI-60 melanoma cell line collection. The heat map for these genes is extracted from the larger nuclear hormone receptor family heat map (FIG. 3). Color-map key indicates the change in standard deviations for the expression value of each receptor relative to the average expression value of all microarray-profiled genes (>39,000 transcript variants) in each cell line. (B) Cell invasion by 1×10^5 MeWo, 5×10^4 HT-144, 5×10^5 SK-Mel-2, and 5×10^4 SK-Mel-334.2 human melanoma cells. Cells were treated with DMSO, GW3965, T0901317, or Bexarotene at 1 μM for 72 hours and subjected to a trans-well matrigel invasion assay. n=4-8. (C) 5×10^4 MeWo, HT-144, SK-Mel-2, and SK-Mel-334.2 human melanoma cells were tested for their ability to recruit 1×10^5 endothelial cells in a trans-well migration assay, following treatment of the melanoma cells with DMSO, GW3965, T0901317, or Bexarotene at 1 μM for 72 hours. n=4-8. […] Scale bar, 50 μm. *p<0.05, **p<0.01, ***p<0.001, ****p<0.0001.
The cell invasion assay was performed as previously described in detail (Pencheva et al., 2012) using a trans-well matrigel invasion chamber system (354480, BD Biosciences). In brief, various melanoma cells were cultured in the presence of DMSO, GW3965, T0901317, or Bexarotene at 1 μM for 56 hours, after which melanoma cells were switched to starvation media (0.2% FBS) for 16 hours in the presence of each drug. Following starvation, cells were seeded into matrigel-coated trans-well inserts, and the invasion assay was allowed to proceed for 24 hours at […]. For ApoE antibody neutralization experiments, 40 μg/mL 1 D7 anti-ApoE blocking antibody (Heart Institute, University of Ottawa, Ottawa, Canada) or […] anti-IgG control antibody (AB-108-C, R&D Systems, Minneapolis, Minn.) was added to each trans-well insert at the start of the assay.
The cells were then serum starved for 16 hours in 0.2% FBS media in the presence of each corresponding drug or DMSO. Following serum starvation, the cells were subjected to the trans-well invasion assay using a matrigel invasion chamber system (354480, BD Biosciences). Invasion chambers were pre-equilibrated prior to the assay by adding 0.5 mL of starvation media to the top and bottom wells. Meanwhile, cancer cells were trypsinized and viable cells were counted using trypan blue. Cancer cells were then resuspended at a concentration of 2×10^5 cells/1 mL starvation media, and 0.5 mL of cell suspension, containing 1×10^5 cells, was seeded into each trans-well. The invasion assay was allowed to proceed for 24 hours at 37° C. […] Following fixation, the inserts were washed in PBS, cut out, and mounted onto slides using VectaShield mounting medium containing DAPI nuclear stain (H-1000, Vector Laboratories). The basal side of each insert was imaged using an inverted fluorescence microscope (Zeiss Axiovert 40 CFL) at 5× magnification, and the number of DAPI-positive cells was quantified using ImageJ.

ApoE expression = ApoE expression by qRT-PCR in human melanoma cells
Procedure: (A-B) Parental MeWo cells were incubated in the presence of DMSO or GW3965 at the indicated concentrations. After 48 hours, total RNA was extracted, and the levels of ApoE (A) and DNAJA4 (B) were determined by qRT-PCR. n=3. (C) Cell invasion by 1×10^5 parental MeWo cells pre-treated with GW3965 or DMSO for 48 hours. n=6-7. p-values based on a one-sided student's t-test. […] (D) Endothelial recruitment by 5×10^4 parental MeWo cells pre-treated with GW3965 or DMSO for 48 hours. n=6-7. p-values based on a one-sided student's t-test. (E) Mice were fed with grain-based chow diet containing GW3965 (20 mg/kg) or a control diet. After 10 days, 4×10^4 parental MeWo cells were tail-vein injected into mice, and the mice were continuously fed with GW3965-containing chow or a control diet throughout the experiment.
(A-C) MeWo (A), HT-144 (B), and WM-266-4 (C) human melanoma cells were treated with GW3965 or T0901317 at the indicated concentrations for 48 hours, and the expression levels of ApoE were analysed by qRT-PCR. n=3. (D) Extracellular ApoE protein levels, quantified by ELISA, in serum-free conditioned media collected from HT-144 human melanoma cells treated with DMSO, GW3965, or T0901317 at 1 μM for 72 hours. n=3-4. […] (I-J) Relative ApoE expression, quantified by qRT-PCR, in MeWo (I) and HT-144 (J) cells transduced with a control shRNA or shRNAs targeting LXRα or LXRβ and subsequently treated with DMSO, GW3965, or T0901317 at 1 μM for 48 hours. n=3-9. (K) Extracellular ApoE protein levels, measured by ELISA, in serum-free conditioned media harvested from HT-144 cells transduced with a control shRNA or an shRNA targeting LXRα or LXRβ and treated with DMSO or GW3965 at 1 μM for 72 hours. n=3.
RNA was extracted from whole cell lysates using the Total RNA Purification Kit (17200, Norgen, Thorold, Canada). 600 ng of total RNA was then reverse transcribed into cDNA using the cDNA First-Strand Synthesis Kit (18080-051, Invitrogen), and quantitative real-time PCR amplification was performed as previously described (Pencheva et al., 2012) using an ABI Prism 7900HT Real-Time PCR System (Applied Biosystems, Austin, Tex.). […]
For every sample, 600 ng of RNA was reverse transcribed into cDNA using the cDNA First-Strand Synthesis kit (Invitrogen). […] Each reaction was carried out in quadruplicates, and ApoE mRNA expression levels were measured by quantitative real-time PCR amplification using an ABI Prism 7900HT Real-Time PCR System (Applied Biosystems). The relative ApoE expression was determined using the ΔΔCt method.

[2] = test system: B16F10 mouse melanoma cells; assay: Subcutaneous B16F10 tumor growth in C57BL/6 mice; assay type: in vivo; settings: for melanoma primary tumor growth in vivo (B16F10): chow, WO-2010-0138598 Ex. 9 10 or 100 mg/kg/day, SB742881 100 mg/kg/day
Procedure: FIG. 4. Therapeutic LXR Activation Inhibits Melanoma Tumor Growth. […] Representative tumor images shown correspond to tumors extracted at the final day (d12). n=10-18 (A), 8-10 (B). (C-E) Primary tumor growth by 1×10^6 MeWo (C), […] SK-Mel-334.2 (D), and 2×10^6 SK-Mel-2 (E) human melanoma cells subcutaneously injected into immunocompromised mice. […] Tumor images shown correspond to last day of measurements. n=6-34 (C), 8 (D), 5 (E). (F) 5×10^4 B16F10 cells were injected subcutaneously into C57BL/6-WT mice. Upon tumor growth to 150 mm^3, mice were fed continuously with a control chow or a chow containing GW3965 (150 mg/kg), and tumor growth was measured daily. n=6-13. […] Tumor volume was calculated as (small diameter)^2×(large diameter)/2. […] Scale bars, 5 mm (A-D), 50 μm (J, K), 25 μm (L).
The mice were palpated daily for tumor formation and after detection of tumors measuring […] in volume, the mice were assigned to a control chow or a chow containing each respective LXR agonist: LXR-623 (20 mg/kg/day), WO-2007-002563 Ex. 19 (100 mg/kg/day), WO-2010-0138598 Ex. 9 (10 mg/kg/day or 100 mg/kg/day), or SB742881 (100 mg/kg/day). The LXR drug compounds were formulated in the mouse chow by Research Diets, Inc. Tumor dimensions were measured using digital calipers, and tumor volume was calculated as (small diameter)^2×(large diameter)/2.

LXRα = target: T1, LXRα (Homo sapiens, UniProt Q13133); settings: cited from earlier work
T1 sequence (Q13133 1-447): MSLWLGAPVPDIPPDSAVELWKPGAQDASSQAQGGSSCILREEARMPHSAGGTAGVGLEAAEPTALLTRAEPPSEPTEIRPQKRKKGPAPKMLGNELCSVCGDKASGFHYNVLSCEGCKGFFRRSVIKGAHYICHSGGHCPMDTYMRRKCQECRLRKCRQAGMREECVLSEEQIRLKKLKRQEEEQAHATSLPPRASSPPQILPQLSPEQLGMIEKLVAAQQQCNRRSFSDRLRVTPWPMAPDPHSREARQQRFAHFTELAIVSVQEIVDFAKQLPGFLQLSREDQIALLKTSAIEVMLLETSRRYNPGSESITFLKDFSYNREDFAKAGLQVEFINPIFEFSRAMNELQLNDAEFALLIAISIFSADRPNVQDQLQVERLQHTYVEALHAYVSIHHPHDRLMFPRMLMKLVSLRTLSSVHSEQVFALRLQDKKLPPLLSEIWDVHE

ApoE promoter = ApoE promoter activity assay (luciferase, ME.1/ME.2); assay type: cell-based, human; settings: 1 μM
From the text: FIG. 11. LXRβ Activation Suppresses Melanoma Invasion and Endothelial Recruitment by Transcriptionally Enhancing Melanoma-Cell ApoE Expression. […] Scale bar, 50 μm.
The ApoE promoter, consisting of a sequence spanning 980 base pairs upstream and 93 base pairs downstream of the ApoEgene, was cloned into a pGL3-Basic vector (E1751, Promega Corporation, Madison, Wis.) upstream of the firefly luciferase gene using NheI and SacI restriction enzymes. Then, multi-enhancer elements 1 (ME.1) and 2 (ME.2) were cloned directly upstream of the ApoE promoter using MluI and […] restriction enzymes. To assess ApoE promoter- and ME.1/ME.2-driven transcriptional activation by LXR agonists, 5×10^4 MeWo cells were seeded into a 24-well plate. […] To assess transcriptional activation by LXRα or LXRβ, 5×10^4 MeWo cells expressing a control shRNA or shRNA targeting LXRα or LXRβ were seeded into a 24-well plate. […] After 24 hours, cells were lysed, and cell lysate was analyzed for firefly and renilla luciferase activity using the Dual Luciferase Assay System (E1960, Promega) and a Bio-Tek Synergy NEO Microplate Reader. Firefly luciferase signal was normalized to renilla luciferase signal and all data are expressed relative to the luciferase activity ratio measured in the DMSO-treated control cells.

| SMILES | inhibiting cancer progression phenotypes (cell invasion, endothelial recruitment) [1] | potency of inducing ApoE expression in vitro (ApoE expression) | melanoma primary tumor growth in vivo (B16F10) [2] | pEC50 (LXRα) | ability to upregulate ApoE transcription and protein expression upon melanoma cell depletion of LXRβ, but not LXRα (ApoE promoter) | ability to suppress invasion and endothelial recruitment upon knockdown of melanoma LXRβ, but not LXRα ([1]; MeWo, HT-144) | primary tumor growth in vivo (FIG. 4) ([2]; mouse, in vivo) |
| --- | --- | --- | --- | --- | --- | --- | --- |
| CC(C)(O)c1cn(-c2ccc(-c3cc(F)c(CO)c(S(C)(=O)=O)c3)cc2F)c(C(C)(C)c2c(Cl)cccc2Cl)n1 [Compound 112] | more effective | potently induce | significantly inhibited | – | – | – | – |
| CC(C)(O)c1cn(-c2ccc(-c3cccc(S(C)(=O)=O)c3)cc2)c(C(C)(C)c2ccccc2Cl)n1 [Compound 113] | – | – | – | 6.00 to 7.00 | – | – | – |
| CC(CCOc1cccc(CC(=O)O)c1)N(Cc1cccc(C(F)(F)F)c1Cl)CC(c1ccccc1)c1ccccc1 (centres unmarked) [SB742881 109] | more effective | potently induce | significantly inhibited | – | – | – | – |
| O=S(=O)(c1ccccc1)N(CC(F)(F)F)c1ccc(C(O)(C(F)(F)F)C(F)(F)F)cc1 [TO901317 110] | – | potently induce | – | – | abrogated | abrogated | inhibit |
